Measured values published in the supplement of paper PMC10011410.
± gives the standard deviation of the averaged measurements.

Experiments:
U-2 OS [1] = assay: cell painting activity score (Mahalanobis distance from DMSO wells); higher = stronger morphological phenotype; conditions: 24 h
Protocol: (§1)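 Cell painting in U-2 OS cells (384-well, about 1,500 cells per well), compound exposure 24 h, usually six 2-fold concentrations from 20 to 0.625 uM (some compounds higher or lower). Relative cell count is the cell number per well relative to DMSO wells. Activity score is the Mahalanobis distance of the morphological profile from DMSO control wells. Mean of four technical replicate plates.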

U-2 OS [2] = assay: relative cell count vs DMSO (cell painting) (fraction of DMSO control); higher = more cells remaining (less cytotoxic); conditions: 24 h
Protocol: as §1

U-2 OS [3] = assay: AUC of culture confluence over time (live-cell imaging) (AUC (confluence % x time)); higher = more confluent culture (less growth inhibition)
Protocol: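 Live-cell Incucyte imaging of U-2 OS cells in F-12K medium. Compounds were tested mostly at 5, 10 and 20 uM, and cells were imaged every 4 h for up to 60 h. Value is the area under the curve of phase-contrast confluence over time.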

Row | Structure (SMILES) | cell painting activity score (U-2 OS [1]; 0.625 µM) | cell painting activity score (U-2 OS [1]; 1.25 µM) | cell painting activity score (U-2 OS [1]; 2.5 µM) | cell painting activity score (U-2 OS [1]; 5 µM) | cell painting activity score (U-2 OS [1]; 10 µM) | cell painting activity score (U-2 OS [1]; 20 µM) | relative cell count (U-2 OS [2]; 0.625 µM) | relative cell count (U-2 OS [2]; 1.25 µM) | relative cell count (U-2 OS [2]; 2.5 µM) | relative cell count (U-2 OS [2]; 5 µM) | relative cell count (U-2 OS [2]; 10 µM) | relative cell count (U-2 OS [2]; 20 µM) | AUC of culture confluence over time (U-2 OS [3]; 5 µM) | AUC of culture confluence over time (U-2 OS [3]; 10 µM) | AUC of culture confluence over time (U-2 OS [3]; 20 µM) | cell painting activity score (U-2 OS [1]; 0.019532 µM) | cell painting activity score (U-2 OS [1]; 0.07812 µM) | cell painting activity score (U-2 OS [1]; 0.3124 µM) | relative cell count (U-2 OS [2]; 0.019532 µM) | relative cell count (U-2 OS [2]; 0.07812 µM) | relative cell count (U-2 OS [2]; 0.3124 µM) | AUC of culture confluence over time (U-2 OS [3]; 1.25 µM)
1 | O=c1cc(N2CCOCC2)oc2c(-c3ccccc3)cccc12 | 3.52 | 4.47 | 4.5 | 5.36 | 6.81 | 9.26 | 1.02 | 0.978 | 0.971 | 0.962 | 1 | 0.948 | 42.2 | 40.7 | 31.5 | – | – | – | – | – | – | –
2 | CCCCCCCCCCCCCCCCCCOP(=O)([O-])OC1CC[N+](C)(C)CC1 | 3.72 | 3.21 | 3.03 | 3.98 | 3.76 | 4.51 | 1.02 | 1.03 | 1.11 | 1.05 | 1.05 | 1.02 | – | – | – | – | – | – | – | – | – | –
3 | CN1CCN(CCOc2cc(OC3CCOCC3)c3c(Nc4c(Cl)ccc5c4OCO5)ncnc3c2)CC1 | 8.87 | 8.9 | 9.68 | 9.8 | 10.5 | 11.3 | 0.997 | 0.953 | 0.993 | 0.997 | 0.991 | 0.933 | 39.5 | 33.5 | 34.5 | – | – | – | – | – | – | –
4 | CC[C@@]1(O)C(=O)OCc2c1cc1n(c2=O)Cc2cc3ccccc3nc2-1 | – | 12.4 ± 0.52 | – | 13.7 ± 0.32 | – | 15.5 ± 0.56 | – | 0.476 ± 0.059 | – | 0.379 ± 0.037 | – | 0.351 ± 0.028 | 19.7 | – | 21.5 | 7.71 ± 3.2 | 9.83 ± 1.2 | 10.3 ± 0.47 | 0.694 ± 0.18 | 0.516 ± 0.026 | 0.503 ± 0.036 | 19.5
5 | CC(C)[C@H]1OC(=O)[C@H](Cc2ccccc2)N(C)C(=O)[C@@H](C(C)C)OC(=O)[C@H](Cc2ccccc2)N(C)C(=O)[C@@H](C(C)C)OC(=O)[C@H](Cc2ccccc2)N(C)C1=O | 3.92 | 4.9 | 9.63 | 14.2 | 15.5 | 34.1 | 0.976 | 0.957 | 0.981 | 0.73 | 0.439 | 0.0218 | 19.7 | 28.9 | 11.6 | – | – | – | – | – | – | –
6 | O=C1O[C@H]2[C@@H]3OC(=O)c4cc(O)c(O)c(O)c4-c4c(O)c(O)c5oc(=O)c6c(c(O)c(O)c7oc(=O)c4c5c76)-c4c(cc(O)c(O)c4O)C(=O)OC[C@H]3OC(O)[C@@H]2OC(=O)c2cc(O)c(O)c(O)c2-c2c1cc(O)c(O)c2O (some centres undefined) | 5.43 | 7.35 | 6.54 | 7.71 | 7.7 | 12.5 | 1.01 | 1 | 1.04 | 1.02 | 0.968 | 0.808 | 47.1 | 42.3 | 38.4 | – | – | – | – | – | – | –
7 | CCN(CCO)CCCOc1ccc2c(Nc3cc(CC(=O)Nc4cccc(F)c4)[nH]n3)ncnc2c1 | 14.3 | 14.4 | 14.3 | 14.3 | 14.5 | 14.9 | 0.771 | 0.757 | 0.76 | 0.8 | 0.788 | 0.757 | 30.4 | 32.1 | 29.6 | – | – | – | – | – | – | –
8 | O=c1c(O)c(-c2ccc(O)c(O)c2)oc2cc(O)cc(O)c12 | 4.42 | 3.56 | 5.15 | 6.18 | 8.67 | 12.4 | 0.954 | 0.982 | 0.939 | 0.962 | 0.892 | 0.814 | 46.5 | 53.6 | 50.6 | – | – | – | – | – | – | –
9 | O=C(O[C@@H]1O[C@@H]2COC(=O)c3cc(O)c(O)c(O)c3-c3c(cc(O)c(O)c3O)C(=O)O[C@H]([C@H]1O)[C@@H]2O)c1cc(O)c(O)c(O)c1 | 4.19 | 3.86 | 4.06 | 3.55 | 4.28 | 4.5 | 1.02 | 1.04 | 1.01 | 1 | 0.979 | 0.978 | 48.7 | 46.2 | 43.4 | – | – | – | – | – | – | –
10 | Cc1ccc(C(=O)N(CCCN)[C@@H](c2nc3cc(Cl)ccc3c(=O)n2Cc2ccccc2)C(C)C)cc1 | 11.9 | 10.6 | 13.1 | 13.9 | 28.6 | 17.6 | 0.22 | 0.209 | 0.227 | 0.225 | 0.0173 | 0.0529 | 18.6 | 21.1 | 9.6 | – | – | – | – | – | – | –
11 | C/C1=C/C(=O)O[C@@H]2C[C@@H](CC[C@H](C)/C=C\CC1)O[C@@](O)([C@@H]1CSC(=O)N1)C2 | 8.28 | 14.2 | 15.4 | 14.9 | 17.7 | 20 | 0.941 | 0.878 | 0.759 | 0.691 | 0.664 | 0.53 | 27.1 | 20.9 | 20.7 | – | – | – | – | – | – | –
12 | O=NN(CCCl)C(=O)NC1CCCCC1 | 3.56 | 4.22 | 4.72 | 4.42 | 4.76 | 7.36 | 0.975 | 0.937 | 0.985 | 0.988 | 0.963 | 0.875 | 46.1 | 48.4 | 47.4 | – | – | – | – | – | – | –
13 | CCc1c2c(nc3ccc(OC(=O)N4CCC(N5CCCCC5)CC4)cc13)-c1cc3c(c(=O)n1C2)COC(=O)[C@]3(O)CC.Cl | 7.03 | 8.8 | 9.65 | 10.7 | 11 | 11.2 | 0.924 | 0.783 | 0.705 | 0.614 | 0.554 | 0.566 | 31.5 | 25.7 | 22 | – | – | – | – | – | – | –
14 | Oc1cc(O)cc(/C=C/c2ccc(O)c(O)c2)c1 | 3.37 | 3.39 | 4.93 | 8.04 | 10.9 | 13.7 | 1.06 | 1.01 | 0.995 | 0.951 | 0.958 | 0.886 | 49.3 | 53.9 | 45.4 | – | – | – | – | – | – | –
15 | O=C1c2ccccc2[Se](=O)N1c1ccccc1 (centres undefined) | 5.57 | 10.4 | 15.8 | 17 | 15.8 | 13.8 | 0.985 | 0.943 | 0.991 | 0.954 | 0.805 | 0.111 | 31.5 | 18.8 | 18.2 | – | – | – | – | – | – | –
16 | Cl.Nc1ccc(O)c2ccccc12 | 8.19 | 6.08 | 9.4 | 14.3 | 15.3 | 30.8 | 0.931 | 0.895 | 0.888 | 0.75 | 0.623 | 0.09 | 31.2 | 23.5 | 18 | – | – | – | – | – | – | –
17 | O=C([O-])C(=O)[O-].[NH-][C@@H]1CCCC[C@H]1[NH-].[Pt+4] | 4.3 | 8.95 | 20.4 | 20 | 19.8 | 22.1 | 0.86 | 0.786 | 0.66 | 0.501 | 0.35 | 0.203 | – | – | – | – | – | – | – | – | – | –
18 | COc1cc(OC)c2ccccc2c1C=C1C(=O)NC(=S)NC1=O | 13.6 | 16.2 | 16.1 | 16.1 | 18 | 17.8 | 0.833 | 0.687 | 0.472 | 0.428 | 0.377 | 0.379 | 13.1 | 12.8 | 13.6 | – | – | – | – | – | – | –
19 | CC1=C2C(=CO[C@H](C)[C@H]2C)C(=O)C(C(=O)O)=C1O | 4.49 | 5.94 | 4.77 | 8.7 | 6.33 | 10.3 | 0.985 | 0.942 | 0.951 | 0.893 | 0.935 | 0.793 | 48.9 | 45.6 | 42 | – | – | – | – | – | – | –
20 | Nc1ncn([C@H]2C[C@H](O)[C@@H](CO)O2)c(=O)n1 | 6.05 | 6.95 | 6.26 | 6.61 | 5.82 | 5.8 | 0.973 | 0.985 | 0.966 | 0.935 | 0.915 | 0.918 | 45.9 | 35.4 | 37.9 | – | – | – | – | – | – | –
21 | Cc1ccc(C(=O)N(CCCN)[C@@H](c2oc3cc(Cl)ccc3c(=O)c2Cc2ccccc2)C(C)C)cc1.Cl | 13.7 | 13 | 14 | 13.6 | 25.2 | 22 | 0.217 | 0.248 | 0.234 | 0.222 | 0.0425 | 0.029 | 20.2 | 15.1 | 11.9 | – | – | – | – | – | – | –
